Several values for one entry are separate records, joined by “and”; a condition that tells them apart may be missing. Equal values may be shown once. Read-outs that look alike come from different tables or passages of the source.
Tests used:
SW620 [1] = assay: Annexin V-FITC/PI flow cytometry; format: cell-based, human; conditions: SW620, compound at IC50, 72 h
Procedure: (§1) The apoptotic and necrotic cells treated with derivatives 2b, 4a, 4b were detected using FITC Annexin V Apoptosis Detection Kit I (BD Biosciences Pharmingen). Briefly, cells (2 × 10^5 cells/well) were seeded in 6-well plates in supplemented medium. […] Then cells were harvested, washed, and labeled with Annexin V-FITC and propidium iodide (PI) according to the manufacturer’s protocol. The stained cells were analyzed by flow cytometry. The cells were identified as early apoptotic (Annexin V+/PI−) or late apoptotic/necrotic (Annexin V+/PI+).

PC3 [2] = assay: Annexin V-FITC/PI flow cytometry; format: cell-based, human; conditions: PC3, compound at IC50, 72 h, mean
Procedure: as §1

SW480 [3] = assay: Annexin V-FITC/PI flow cytometry; format: cell-based, human; conditions: SW480, compound at IC50, 72 h, mean
Procedure: as §1

HaCaT [4] = assay: Annexin V-FITC/PI flow cytometry; format: cell-based, human; conditions: compound at IC50, 72 h, mean
Procedure: as §1

[5] = system: tested cancer cell lines (SW480, SW620, PC3, MDA-MB-231); assay: MTT assay, mean over tested cancer cell lines; format: cell-based; conditions: Homo sapiens, mean of the four cancer cell lines
Procedure: They were added to 96-well plates with seeded normal and cancer cells (1 × 10^4 cells per well) and incubated for 72 h. MTT analysis was performed according to a previous study. […]

SW620 [6] = assay: Trypan blue assay; format: cell-based, human; conditions: SW620, compound at IC50, 72 h
Procedure: (§2) The total cell count was assessed by trypan blue exclusion dye assay using automated cell counter (Countess Invitrogen). Untreated cells were used as the control. Each experiment was repeated 5 times.

PC3 [7] = assay: Trypan blue assay; format: cell-based, human; conditions: PC3, compound at IC50, 72 h
Procedure: as §2

SW480 [8] = assay: Trypan blue assay; format: cell-based, human; conditions: SW480, compound at IC50, 72 h
Procedure: as §2

Trypan blue assay = format: cell-based, human; conditions: human, HaCaT cells, compound at IC50, 72 h, mean
Procedure: as §2

HaCaT [9] = assay: Trypan blue assay; format: cell-based, human; conditions: compound at IC50, 72 h
Procedure: as §2

IL-6 in SW620 cells = assay: Interleukin-6 ELISA; format: cell-based, human; conditions: SW620, compound at IC50, 72 h
Procedure: (§3) The concentration of Interleukin-6 (IL-6) was measured in cell culture supernatant using Interleukin IL-6 High Sensitivity ELISA kit (Diaclon SAS, Besancon Cedex, France). Cells (1 × 10^5 cells/well) were seeded in 12-well plates with medium for 24 h. […] After this incubation, the supernatants were collected and 100 μL of supernatant samples, control solutions and blank were added to precoated ELISA plate with the preceding plotting of the standard curve. Then 50 μL of diluted biotinylated antihuman interleukin-6 antibody was added and incubated at room temperature for 3 h. Afterward, the plate was washed three times and 100 μL streptavidin-HRP solution was added to each well. After 30 min incubation, the plate was washed again three times and 100 μL of tetramethylbenzidine (TMB) solution was added to each well. The plate was incubated for 15 min in the dark. The reaction was stopped by adding 100 μL of H2SO4 solution. The absorbance was estimated using a spectrophotometer at 450 nm (Microplate Spectrophotometer Thermo Scientific Multiskan GO).

IL-6 in PC3 cells = assay: Interleukin-6 ELISA; format: cell-based, human; conditions: PC3, compound at IC50, 72 h
Procedure: as §3

IL-6 in SW480 cells = assay: Interleukin-6 ELISA; format: cell-based, human; conditions: SW480, compound at IC50, 72 h
Procedure: as §3

IL-6 in HaCaT cells = assay: Interleukin-6 ELISA; format: cell-based, human; conditions: compound at IC50, 72 h
Procedure: as §3

MDA-MB-231 = assay: MTT cytotoxicity assay; format: cell-based, human
How it was run: (§4)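 ATCC lines grown in 10% FBS medium (RPMI 1640 for PC3, MEM for SW480/SW620, DMEM for MDA-MB-231) at 37 °C/5% CO2. Cells seeded at 1 × 10^4 per well, exposed to compounds for 72 h; viability read by MTT.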

SW620 [10] = assay: MTT cytotoxicity assay; format: cell-based, human
How it was run: as §4

PC3 [11] = assay: MTT cytotoxicity assay; format: cell-based, human
How it was run: as §4

SW480 [12] = assay: MTT cytotoxicity assay; format: cell-based, human
How it was run: as §4

HaCaT [13] = assay: MTT cytotoxicity assay, normal cells; format: cell-based; conditions: HaCaT, 72 h, human immortal keratinocytes (normal cells)
[14] = SI = IC50 for normal cell line (HaCaT)/IC50 cancer cell line

## CC(C)[C@@H]1CC[C@@H](C)C[C@H]1OC(=O)C1C(=O)Oc2ccccc2C1P(=O)(c1ccccc1)c1ccccc1 (mixture of isomers) [Compound 4a, (1R,2S,5R)-2-Isopropyl-5-methylcyclohexyl-4-(diphenylphosphoryl)-2-oxochromane-3-carboxylate]
SW620 [1]; mean
  Early apoptosis [%]: 11.75%
  Late apoptosis [%]: 8.80%
  Necrosis [%]: 1.45%
SW620 [1]; sum
  both late apoptosis and necrosis: 10.25%
PC3 [2]
  Early apoptosis [%]: 48.3%
  Late apoptosis [%]: 44.75% and 44.8%
  Necrosis [%]: 0.65%
SW480 [3]
  Early apoptosis [%]: 1.95%
  Late apoptosis [%]: 48.95%
  Necrosis [%]: 1.80%
HaCaT [4]
  Early apoptosis [%]: 8.90%
  Late apoptosis [%]: 3.40%
  Necrosis [%]: 0.08%
[5]; Table S7, >100 entered as 100, read-out: mean anticancer IC50
  IC50: 11.6 µM
[5]; read-out: average IC50 against tested cancer cell lines
  IC50: 11.6 µM
SW620 [6]; mean
  cell number: 1.86 x106
  viability (%): 98%
SW620 [6]; vs control
  reduction of number of live cells: 47.6%
PC3 [7]; mean
  cell number: 2.5 x106
  viability (%): 94.33%
PC3 [7]; vs control
  reduction of number of live cells: 62.1%
SW480 [8]; mean
  cell number: 0.72 x106
  viability (%): 93.66%
SW480 [8]; vs control
  reduction of number of live cells: 79.9%
Trypan blue assay
  viability at 72 h: 96%
HaCaT [9]; mean
  cell number: 4.26 x106
HaCaT [9]; vs control
  reduction of number of cells: 31.9%
IL-6 in SW620 cells; ELISA
  IL-6 concentration: 0.9 ± 0.27 pg/mL
IL-6 in SW620 cells; vs control
  reduction of IL-6 level: 69.1%
IL-6 in PC3 cells; ELISA
  IL-6 concentration: 0.6 ± 0.09 pg/mL
IL-6 in PC3 cells; vs control
  reduction of IL-6 level: 87.2%
IL-6 in SW480 cells; ELISA
  IL-6 concentration: 0.9 ± 0.33 pg/mL
IL-6 in SW480 cells; vs control
  reduction of IL-6 level: 77.6%
IL-6 in HaCaT cells; ELISA
  IL-6 concentration: 7.5 ± 1.13 pg/mL
IL-6 in HaCaT cells; vs control
  reduction of IL-6 concentration: 26.5%
MDA-MB-231; MDA-MB-231, MTT, 72 h, human breast adenocarcinoma
  IC50: 25.3 ± 4.59 µM
MDA-MB-231; [14]
  SI MDA-MB-231: 0.60
SW620 [10]; [14]
  SI SW620: 2.21
SW620 [10]; SW-620, MTT, 72 h, human metastatic colon cancer
  IC50: 6.8 ± 0.55 µM
PC3 [11]; PC-3, MTT, 72 h, human metastatic prostate cancer
  IC50: 9.8 ± 2.02 µM
PC3 [11]; [14]
  SI PC3: 1.53
SW480 [12]; [14]
  SI SW480: 3.28
SW480 [12]; SW480, MTT, 72 h, human primary colon cancer
  IC50: 4.6 ± 1.01 µM
HaCaT [13]
  IC50: 15.1 ± 2.76 µM

— paper PMC12529164, “Design, Synthesis, Structure–Activity Relationships, and Preliminary Anticancer Properties of Menthol-Modified Coumarin Esters and 3,4-Dihydrocoumarin Derivatives” (ACS Omega, 2025)
